According to US20250042857A1, “SOS1 Inhibitor With Pyrido-Fused Six-Membered Ring Structure” (HAIHE BIOPHARMA CO., LTD., priority 2021, published 2025):

Experiments:
KRAS-G12C/SOS1 = KRAS-G12C/SOS1 (Homo sapiens (Human), UniProt Q07889); experiment: Detection of inhibitory effects of compounds on KRAS-G12C/SOS1 (KRASG12C/SOS binding kit, HTRF); conditions: Em665/620, read-out: IC50, inhibitory activity on interaction of KRAS-G12C/SOS1
Description: Experimental objective: The inhibitory effects of the tested compounds on KRAS-G12C/SOS1 were detected. IC50 was used to characterize the inhibitory ability of the compounds on the KRAS-G12C/SOS1. The lower IC50 value indicated the stronger inhibitory ability. BI-3406 was used as a positive control compound.
Experimental reagents: KRASG12C/SOS binding kit (Cisbio, cat. 63ADK000CB16PEG); DMSO (Sigma, cat. D8418-1L); and 384-well white plate (PerkinElmer, cat. 6007290)
• 1. Preparation of compounds: the test compounds were dissolved in 100% DMSO to obtain 10 mM stock solutions and the stock solutions were stored in a refrigerator in the dark. • 2. Kinase reaction process:
Preparation of compounds: the test compounds had the concentration of 5,000 nM and diluted in a 384-well plate into a 100% DMSO solution at the 200-fold final concentration, and the compounds were diluted 3-fold with 10 concentrations. 50 nL of the compounds at the 200-fold final concentration were transferred to the plate of interest, the 384-well plate, using a dispenser Echo 550. 50 nL of 100% DMSO was added to each negative control well and positive control well.
A Tag1-SOS1 solution at the 4-fold final concentration was prepared using a diluent buffer.
2.5 μL of the Tag1-SOS1 solution at the 4-fold final concentration was added to the 384-well plate.
A Tag2-KRAS-G12C solution at the 4-fold final concentration was prepared using the diluent buffer.
2.5 μL of the Tag2-KRAS-G12C solution at the 4-fold final concentration was respectively added into compound wells and the positive control wells; and 2.5 μL of the diluent buffer was added to the negative control wells.
The 384-well plate was centrifuged at 1,000 rpm for 30 seconds, shaken and mixed uniformly, and incubated at room temperature for 15 minutes.
An Anti-Tag1-TB3+ solution at the 1-fold final concentration and an Anti-Tag2-XL665 solution at the 1-fold final concentration were prepared using a detection buffer, the two solutions were mixed uniformly to obtain a Mix solution, and 5 μL of the Mix solution was added into each well.
The 384-well plate was centrifuged at 1,000 rpm for 30 seconds, shaken and mixed uniformly, and incubated at 4° C. for 120 minutes.
Em665/620 was read using an Envision microplate reader.
Inhibition %=(Max signal−Compound signal)/(Max signal−Min signal)×100 Calculation formula • wherein the Min signal was the mean value of the negative control wells, and the Max signal was the mean value of the positive control wells.
A dose-response curve was fitted using the log value of the concentration as an X axis and the percentage of the inhibitory rate as a Y axis by using the log(inhibitor) vs. response-variable slope of an analytical software GraphPadPrism5, thereby obtaining the IC50 value of each compound on an enzyme activity.

p-ERK of PC-9 cells = experiment: p-ERK HTRF assay in PC-9 cells; format: cell-based; conditions: Homo sapiens, PC-9, 1 h, PC-9 lung cancer cells, 1 hour treatment, read-out: IC50, inhibitory activity on p-ERK of PC-9 cells
Procedure: IC50 Values of Compounds Determined by p-ERK HTRF Assay in PC-9 Cells
Experimental objective: an inhibitory effect of the test compounds on the phosphorylation of PC-9ERK of lung cancer cells at a cellular level was evaluated by detecting the phosphorylation of ERK.
• PRMI 1640 medium (Invitrogen-11875093) • 0.25% pancreatin (Invitrogen-25200056) • Phosphoric acid buffer salt solution (PBS, pH 7.4) (Invitrogen-10010023) • Double-antibody (PS) (Invitrogen-15140122) • Fetal bovine serum (FBS) (Gibco-10091148) • Trypan blue (Gibco-15250061) • 10-cm culture dish (Corning-430167) • 10-mL pipette (Costar-4488) • Pipettor (Sartorius-17009031) • 15-mL centrifuge tube (Corning-430052) • 50-mL centrifuge tube (Corning-430829) • Cryotube (Thermo-377267) • 1.5-mL EP tube (Axygen-MCT-150-C-S) • Cell incubator (Thermo-371) • Microscope (Olympus-CKX41) • Centrifuge (Flying Pigeon-TDL-80-2B) • Cell counter (Countstar-IC-1000) • Envision (Perkin Elmer) • Spark 10M (TECAN) • Phospho-ERK1/2 (Thr202/Tyr204) Experimental kit (Cisbio, Cat. No. 64AERPEG) • PC-9 cells: RPMI1640+10% FBS+1% PS
• 1) PBS, 0.25% pancreatin, and a cell culture medium were placed in a water-bath kettle at 37° C. for preheating; • 2) cells were observed under a microscope, a fusion degree was evaluated, and no bacterial and fungi pollution was confirmed; • 3) a culture solution was removed, the cells were washed with 5 mL of PBS and digested with 2 mL of the 0.25% trypsin, the digestion was terminated with 10 mL of the fresh cell culture medium, a culture dish was rinsed, and the cells were transferred to a 15-mL centrifuge tube; • 4) the collected cells were centrifuged at 1,000 rpm for 5 minutes; • 5) after the centrifugation, the supernatant was discarded, the cells were resuspended in 5 mL of the cell culture medium, 20 μL of the resuspended cells were aspirated, and the number and viability of viable cells were recorded; • 6) the cell culture medium was used and the cell density was adjusted (PC-9:10,000 cells/well, and 45 μL per well); • 7) in a 384-well plate, 45 μL of a cell suspension per well was transferred according to an experimental design figure; and • 8) the cells were incubated overnight at 37° C. and 5% CO2.
• 1) The compounds were diluted from the stock concentration to 10 mM with 100% DMSO (Trametinib was diluted to 1 mM), then 3-fold diluted into 10 points (5 μL of the diluted compounds with the concentration of 10 mM were transferred to 10 μL of the DMSO in an LDV plate), and centrifuged at 1,000 rpm/min for 1 minute; • 2) 5 μL of the diluted compounds of step 1) were transferred to an inter plate 1 containing 45 μL of the cell culture medium (the compounds were diluted from 1,000× to 100×); • 3) 5 μL of the diluted compounds of step 2) were transferred to an inter plate 2 containing 45 μL of the cell culture medium (the compounds were diluted from 100× to 10×); • 4) 5 μL of the compounds were pipetted from the inter plate 2 into a cell culture plate (the compounds were diluted from 10 folds to 1 fold), the final concentrations of the test compounds were 10,000 nM, 3333.33 nM, 1111.11 nM, 370.37 nM, 123.46 nM, 41.15 nM, 13.72 nM, 4.57 nM, 1.52 nM, and […], the solution was centrifuged at 1,000 rpm/min for 1 minute, and the final content of the DMSO was 0.1%; and • 5) the cells were treated in an incubator at 37° C. for 1 hour. […]

Chain of KRAS-G12C/SOS1 (Q07889 whole entry, stated change not applied): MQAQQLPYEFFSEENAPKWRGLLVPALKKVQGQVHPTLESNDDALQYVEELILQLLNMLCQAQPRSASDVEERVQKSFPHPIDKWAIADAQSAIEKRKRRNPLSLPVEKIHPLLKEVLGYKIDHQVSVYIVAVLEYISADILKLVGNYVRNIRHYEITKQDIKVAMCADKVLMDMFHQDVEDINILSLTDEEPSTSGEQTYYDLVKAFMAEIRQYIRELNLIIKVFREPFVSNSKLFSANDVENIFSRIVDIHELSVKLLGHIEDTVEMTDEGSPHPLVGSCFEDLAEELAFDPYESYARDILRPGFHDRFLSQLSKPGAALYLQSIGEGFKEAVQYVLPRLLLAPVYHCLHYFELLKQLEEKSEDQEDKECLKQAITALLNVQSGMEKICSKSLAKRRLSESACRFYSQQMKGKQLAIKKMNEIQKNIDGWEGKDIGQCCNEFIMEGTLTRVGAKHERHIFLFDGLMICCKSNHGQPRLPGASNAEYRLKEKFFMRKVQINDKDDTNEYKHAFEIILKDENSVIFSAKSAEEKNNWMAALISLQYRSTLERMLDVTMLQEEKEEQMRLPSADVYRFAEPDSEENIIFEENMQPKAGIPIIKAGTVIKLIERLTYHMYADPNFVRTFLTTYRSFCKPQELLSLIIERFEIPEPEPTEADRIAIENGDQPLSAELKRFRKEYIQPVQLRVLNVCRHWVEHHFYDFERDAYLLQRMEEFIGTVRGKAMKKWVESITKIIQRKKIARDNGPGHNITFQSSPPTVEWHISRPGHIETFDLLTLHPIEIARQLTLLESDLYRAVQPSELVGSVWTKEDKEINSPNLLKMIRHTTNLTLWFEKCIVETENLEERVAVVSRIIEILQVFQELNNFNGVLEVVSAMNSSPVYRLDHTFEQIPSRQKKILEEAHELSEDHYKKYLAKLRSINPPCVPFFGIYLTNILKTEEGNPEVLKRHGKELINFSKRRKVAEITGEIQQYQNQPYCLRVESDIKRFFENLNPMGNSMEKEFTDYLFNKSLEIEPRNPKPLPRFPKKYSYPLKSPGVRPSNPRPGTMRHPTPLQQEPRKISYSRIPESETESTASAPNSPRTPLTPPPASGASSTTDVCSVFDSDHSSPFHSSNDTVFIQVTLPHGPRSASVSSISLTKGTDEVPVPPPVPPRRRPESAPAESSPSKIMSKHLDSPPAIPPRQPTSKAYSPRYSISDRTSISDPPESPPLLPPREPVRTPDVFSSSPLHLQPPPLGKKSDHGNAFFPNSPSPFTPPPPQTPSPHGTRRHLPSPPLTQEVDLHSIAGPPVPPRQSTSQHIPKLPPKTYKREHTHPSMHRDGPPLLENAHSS

| Compound | IC50 (KRAS-G12C/SOS1) [nM] | IC50 (p-ERK of PC-9 cells) [nM] |
| --- | --- | --- |
| C[C@@H](Nc1ccnc2cnc(N3CCC(C(=O)O)CC3)cc12)c1cccc(C(F)F)c1F [Compound B-35] | ≤ 100 | > 1000 |
| CNC(=O)C1CCN(c2cc3c(N[C@H](C)c4cccc(C(F)F)c4F)ccnc3cn2)CC1 [Compound B-36] | ≤ 100 | ≤ 300 |
| CC(=O)NC1CCN(c2cc3c(N[C@H](C)c4cccc(C(F)F)c4F)ccnc3cn2)CC1 [Compound B-37] | ≤ 100 | > 1000 |
| C[C@@H](Nc1ccnc2cnc(N3CCS(=O)(=O)CC3)cc12)c1cccc(C(F)F)c1F [Compound B-38] | ≤ 100 | ≤ 300 |
| C[C@@H](Nc1ccnc2cnc(N3CCN(C)C(=O)C3)cc12)c1cccc(C(F)F)c1F [Compound B-41] | ≤ 100 | ≤ 300 |
| CC(=O)N1CCN(c2cc3c(N[C@H](C)c4cccc(C(F)F)c4F)ccnc3cn2)CC1CO (some centres unmarked) [Compound B-44] | ≤ 100 | ≤ 300 |
| CC(=O)N1CCN(c2cc3c(N[C@H](C)c4cccc(C(F)F)c4F)ccnc3cn2)[C@@H](CO)C1 [Compound B-45] | ≤ 100 | ≤ 300 |
| CC(=O)N1CCN(c2cc3c(N[C@H](C)c4cccc(C(F)F)c4F)ccnc3cn2)[C@H](CO)C1 [Compound B-47] | ≤ 100 | ≤ 300 |
| COC[C@@H]1CN(C(C)=O)CCN1c1cc2c(N[C@H](C)c3cccc(C(F)F)c3F)ccnc2cn1 [Compound B-48] | ≤ 100 | ≤ 300 |
| CC(=O)N1CCN(c2cc3c(N[C@H](C)c4cccc(C(F)(F)F)c4)ccnc3cn2)CC1 [Compound B-49] | ≤ 100 | ≤ 300 |
| CC(=O)N1CCN(c2cc3c(N[C@H](C)c4cccc(C(F)(F)F)c4C)ccnc3cn2)CC1 [Compound B-50] | ≤ 100 | ≤ 300 |
| CC(=O)N1CCC(N)(c2cc3c(N[C@H](C)c4cccc(C(F)F)c4F)ccnc3cn2)CC1 [Compound B-51] | ≤ 100 | ≤ 300 |
| C[C@@H](Nc1ccnc2cnc(N3CCCS3(=O)=O)cc12)c1cccc(C(F)F)c1F [Compound B-52] | ≤ 100 | ≤ 300 |
| CC(=O)N1CCN(c2cc3c(N[C@H](C)c4cccc(C(F)F)c4F)ccnc3cn2)C(=O)C1 [Compound B-53] | ≤ 100 | 300 to 1000 |
| C[C@@H](Nc1ccnc2cnc(N3CCC(O)CC3=O)cc12)c1cccc(C(F)F)c1F (some centres unmarked) [Compound B-54] | ≤ 100 | 300 to 1000 |
| CC(=O)N1CCN(c2cc3c(N[C@H](C)c4cccc(C(F)F)c4F)ccnc3cn2)[C@@H](CC#N)C1 [Compound B-56] | ≤ 100 | ≤ 300 |
| C[C@@H](Nc1ccnc2cnc(N3CCCCS3(=O)=O)cc12)c1cccc(C(F)F)c1F [Compound B-60] | ≤ 100 | ≤ 300 |

| Compound | IC50 (KRAS-G12C/SOS1) [nM] | IC50 (p-ERK of PC-9 cells) [nM] |
| --- | --- | --- |
| CC(=O)N1CCN(c2cc3c(N[C@H](C)c4cccc(C(F)F)c4F)ccnc3c(C)n2)CC1 [Compound B-62] | ≤ 100 | ≤ 300 |
| CC(=O)N1CCN(c2cc3c(N[C@H](C)c4cccc(C(F)F)c4F)ccnc3c(C)n2)[C@@H](CO)C1 [Compound B-63] | ≤ 100 | ≤ 300 |
| Cc1nc(N2CCCCS2(=O)=O)cc2c(N[C@H](C)c3cccc(C(F)F)c3F)ccnc12 [Compound B-65] | ≤ 100 | 300 to 1000 |
| CC(=O)N1C2CCC1CC(c1cc3c(N[C@H](C)c4cccc(C(F)F)c4F)ccnc3c(C)n1)C2 (some centres unmarked) [Compound B-67] | ≤ 100 | 300 to 1000 |
| CC(=O)N1CCC(O)(c2cc3c(N[C@H](C)c4cccc(C(F)F)c4F)ccnc3c(C)n2)CC1 [Compound B-68] | ≤ 100 | > 1000 |
| CC(=O)N1C2CCC1CC(O)(c1cc3c(N[C@H](C)c4cccc(C(F)F)c4F)ccnc3c(C)n1)C2 (some centres unmarked) [Compound B-69] | ≤ 100 | > 1000 |
| Cc1nc(C2(O)CCC(O)CC2)cc2c(N[C@H](C)c3cccc(C(F)F)c3F)ccnc12 (some centres unmarked) [Compound B-70] | ≤ 100 | 300 to 1000 |
| CC(=O)N1CCN(c2cc3c(N[C@H](C)c4cccc(C(F)F)c4F)cc(C)nc3cn2)CC1 [Compound B-71] | ≤ 100 | ≤ 300 |
| Cc1cc(N[C@H](C)c2cccc(C(F)F)c2F)c2cc(N3CCCS3(=O)=O)ncc2n1 [Compound B-72] | ≤ 100 | 300 to 1000 |
| COc1nc(N2CCN(C(C)=O)CC2)cc2c(N[C@H](C)c3cccc(C(F)F)c3F)ccnc12 [Compound B-73] | ≤ 100 | ≤ 300 |
| C[C@@H](Nc1ccnc2cnc(N3CCC(O)(CO)CC3)cc12)c1cccc(C(F)F)c1F [Compound B-74] | ≤ 100 | ≤ 300 |
| C[C@@H](Nc1ccnc2cnc(N3CCC(O)(CN)CC3)cc12)c1cccc(C(F)F)c1F [Compound B-75] | ≤ 100 | 300 to 1000 |
| CNC(=O)C1(O)CCN(c2cc3c(N[C@H](C)c4cccc(C(F)F)c4F)ccnc3cn2)CC1 [Compound B-76] | ≤ 100 | ≤ 300 |
| C[C@@H](Nc1ccnc2cnc(N3C[C@H](O)C[C@H]3CO)cc12)c1cccc(C(F)F)c1F [Compound B-78] | ≤ 100 | ≤ 300 |
| C[C@@H]1OCC2(CCN(c3cc4c(N[C@H](C)c5cccc(C(F)F)c5F)ccnc4cn3)CC2)[C@@H]1N [Compound B-79] | ≤ 100 | ≤ 300 |
| COC1(c2cc3c(N[C@H](C)c4cccc(C(F)F)c4F)ccnc3cn2)CCC(O)CC1 (some centres unmarked) [Compound B-82] | ≤ 100 | ≤ 300 |
| C[C@@H](Nc1ccnc2cnc(C3(O)CCS(=O)(=O)CC3)cc12)c1cccc(C(F)F)c1F [Compound B-91] | ≤ 100 | 300 to 1000 |
